4 compounds from patent publication US20100075978A1, “SULFONAMIDE DERIVATIVES AS BRADYKININ ANTAGONISTS” (priority 2006, published 2010) can be followed below.

pIC50, pKi: −log10 of the molar value. Where a name gives a salt, the structure may show the parent alone. Some results are limits rather than exact numbers.

The target in test [1] is T1, recombinant human B1 receptors (Homo sapiens, UniProt P46663).
T1 construct: host or cells: CHO (CHO-B1)
T1 sequence (P46663 1-353): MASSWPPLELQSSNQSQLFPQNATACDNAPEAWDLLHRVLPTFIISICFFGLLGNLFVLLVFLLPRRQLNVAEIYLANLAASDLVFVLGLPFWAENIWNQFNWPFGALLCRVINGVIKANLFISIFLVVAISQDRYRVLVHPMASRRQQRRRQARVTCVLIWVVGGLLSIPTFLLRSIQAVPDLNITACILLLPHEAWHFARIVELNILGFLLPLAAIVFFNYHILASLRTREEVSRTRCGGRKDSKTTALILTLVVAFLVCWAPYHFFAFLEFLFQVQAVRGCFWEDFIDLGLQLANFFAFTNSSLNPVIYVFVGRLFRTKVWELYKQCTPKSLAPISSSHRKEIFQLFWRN
As to the kind of experiment: Functional assay: cytosolic calcium ion concentration measured with plate reader fluorimeter in CHO-B1 cells, agonist LysDABK. It is filed as cell-based. The note with it: CHO-B1 cells, LysDABK at EC80, [Ca2+]i; read-out: B1 func.

Test [2] addresses T2, human recombinant bradykinin B1 receptor (Homo sapiens, UniProt P46663).
T2 construct: purchased Euroscreen ES-091; host or cells: CHO cells
T2 sequence (P46663 1-353): T1 sequence (P46663 1-353)
Kind of test: Human recombinant bradykinin B1 receptor binding. The note with it: radioligand [3H]-[Des-Arg10] Kallidin, CHO cell membranes; read-out: B1 binding.

For `O=C(Nc1ccc(N2CCC(N3CCCCC3)CC2)cc1)c1ccc(S(=O)(=O)Nc2cc(F)ccc2Oc2ccc(Br)cc2)cc1` [Example 58, N-(4-[1,4′]Bipiperidinyl-1′-yl-phenyl)-4-[2-(4-bromo-phenoxy)-5-fluoro-phenylsulfamoyl]-benzamide], the pIC50 in test [1] is > 7.70. In addition, in test [2], the pKi is > 7.70.
As for `O=C(NCCCCC1CCNCC1)c1ccc(S(=O)(=O)Nc2ccccc2Oc2ccc(Br)cc2)cc1` [Example 101, 4-[2-(4-Bromo-phenoxy)-phenylsulfamoyl]-N-(4-piperidin-4-yl-butyl)-benzamide hydrochloride], in test [1], the pIC50 is 7.00 to 7.70. Further, in test [2], the pKi was 7.00 to 7.70.
As for `O=C(NCCC1CCNCC1)c1ccc(S(=O)(=O)Nc2ccccc2Oc2ccc(Cl)cc2Cl)cc1` [Example 11, 4-[2-(2,4-Dichloro-phenoxy)-phenylsulfamoyl]-N-(2-piperidin-4-ylethyl)-benzamide trifluoroacetate], the pIC50 in test [1] is 7.00 to 7.70. Moreover, the pKi in test [2] was 7.00 to 7.70.
`O=C(Nc1ccc(N2CCC(N3CCCCC3)CC2)cc1)c1ccc(S(=O)(=O)Nc2ccccc2Oc2ccc(C(F)(F)F)cc2)cc1` [Example 127, N-(4-[1,4′]Bipiperidinyl-1′-yl-phenyl)-4-[2-(4-trifluoromethyl-phenoxy)-phenylsulfamoyl]-benzamide]: the pIC50 in test [1] was > 7.70. In test [2], the pKi was 7.00 to 7.70.
